# Values of other authors as cited in PMC7096398, “Oxytocin Receptors Regulate Social Preference in Zebrafish” (Scientific Reports, 2020).
# Key:
# [1] = tested on: zebrafish; parameters: method as in 4 sources, ref 42 = [42]; PMID 21956239; doi:10.1007/s00213-011-2482-2; 42. Braida D Neurohypophyseal hormones manipulation modulate social and anxiety-related behavior in zebrafish Psychopharmacology (Berl) 2012 220 319 330 10.1007/s00213-011-2482-2 21956239 ||| ref 44 = [44]; PMID 27247142; doi:10.1016/j.bbr.2016.05.059; 44. Zimmermann FF Gaspary KV Siebel AM Bonan CD Oxytocin reversed MK-801-induced social interaction and aggression deficits in zebrafish Behav Brain Res 2016 311 368 374 10.1016/j.bbr.2016.05.059 2724 ||| ref 51 = [51]; doi:10.1163/1568539x-00003261; 51. Lindeyer CM Langen EMA Swaney WT Reader SM Nonapeptide influences on social behaviour: effects of vasotocin and isotocin on shoaling and interaction in zebrafish Behaviour 2015 152 897 915 10.1163 ||| ref 27 = [27]; PMID 26347614; doi:10.3389/fncir.2015.00039; 27. Dreosti E Lopes G Kampff AR Wilson SW Development of social behavior in young zebrafish Front Neural Circuits 2015 9 39 10.3389/fncir.2015.00039 26347614 PMC4539524; conditions: cited from earlier work
# From the text: Thus far, dopamine[56] and serotonin[57] in the mesolimbic system and excitation-inhibition balance[58] seem to play a prominent role in social investigation in rodents. Similarly, levels of dopamine and serotonin are modulated in socially interacting fish[59]–[61] and social preference behaviour decreases after treatment with a dopamine D1 receptor antagonist. […] In rodents, release of ... || (+ 1 further places)
# [2] = cited from earlier work
smiles,measurement,setting,value
"Cc1ccccc1N1CCN(S(=O)(=O)C[C@]23CC[C@H](C[C@@H]2NC(=O)[C@@H](N)CCS(C)(=O)=O)C3(C)C)CC1 [L-368,899]","Social preference, compound by itself",[1]; adult zebrafish,did not decrease social preference
same,Social deficits following MK-801 exposure,[1]; zebrafish exposed to glutamate antagonist MK-801,did not reverse those deficits
same,half-life,[2],about 2 hours
